# Data reported in publication PMC5840332, “Disease-associated missense mutations in GluN2B subunit alter NMDA receptor ligand binding and ion channel properties” (Nature Communications, 2018).
# Values joined by “and” are separate entries in the source; they are usually repeats but may differ in a detail not shown here. Equal entries are not always repeated.
# Experiments:
# [1] = target: T1, GluN1–GluN2B^WT (Homo sapiens, UniProt Q05586+Q13224); experiment: Ion permeability experiments in Mg2+ or Ca2+ solution, HEK293 cells; type: cell-based; set-up: expressed in transfected cells; host or cells: HEK293; settings: −60 mV
# T1 sequence (Q13224 27-1484, other chains not shown): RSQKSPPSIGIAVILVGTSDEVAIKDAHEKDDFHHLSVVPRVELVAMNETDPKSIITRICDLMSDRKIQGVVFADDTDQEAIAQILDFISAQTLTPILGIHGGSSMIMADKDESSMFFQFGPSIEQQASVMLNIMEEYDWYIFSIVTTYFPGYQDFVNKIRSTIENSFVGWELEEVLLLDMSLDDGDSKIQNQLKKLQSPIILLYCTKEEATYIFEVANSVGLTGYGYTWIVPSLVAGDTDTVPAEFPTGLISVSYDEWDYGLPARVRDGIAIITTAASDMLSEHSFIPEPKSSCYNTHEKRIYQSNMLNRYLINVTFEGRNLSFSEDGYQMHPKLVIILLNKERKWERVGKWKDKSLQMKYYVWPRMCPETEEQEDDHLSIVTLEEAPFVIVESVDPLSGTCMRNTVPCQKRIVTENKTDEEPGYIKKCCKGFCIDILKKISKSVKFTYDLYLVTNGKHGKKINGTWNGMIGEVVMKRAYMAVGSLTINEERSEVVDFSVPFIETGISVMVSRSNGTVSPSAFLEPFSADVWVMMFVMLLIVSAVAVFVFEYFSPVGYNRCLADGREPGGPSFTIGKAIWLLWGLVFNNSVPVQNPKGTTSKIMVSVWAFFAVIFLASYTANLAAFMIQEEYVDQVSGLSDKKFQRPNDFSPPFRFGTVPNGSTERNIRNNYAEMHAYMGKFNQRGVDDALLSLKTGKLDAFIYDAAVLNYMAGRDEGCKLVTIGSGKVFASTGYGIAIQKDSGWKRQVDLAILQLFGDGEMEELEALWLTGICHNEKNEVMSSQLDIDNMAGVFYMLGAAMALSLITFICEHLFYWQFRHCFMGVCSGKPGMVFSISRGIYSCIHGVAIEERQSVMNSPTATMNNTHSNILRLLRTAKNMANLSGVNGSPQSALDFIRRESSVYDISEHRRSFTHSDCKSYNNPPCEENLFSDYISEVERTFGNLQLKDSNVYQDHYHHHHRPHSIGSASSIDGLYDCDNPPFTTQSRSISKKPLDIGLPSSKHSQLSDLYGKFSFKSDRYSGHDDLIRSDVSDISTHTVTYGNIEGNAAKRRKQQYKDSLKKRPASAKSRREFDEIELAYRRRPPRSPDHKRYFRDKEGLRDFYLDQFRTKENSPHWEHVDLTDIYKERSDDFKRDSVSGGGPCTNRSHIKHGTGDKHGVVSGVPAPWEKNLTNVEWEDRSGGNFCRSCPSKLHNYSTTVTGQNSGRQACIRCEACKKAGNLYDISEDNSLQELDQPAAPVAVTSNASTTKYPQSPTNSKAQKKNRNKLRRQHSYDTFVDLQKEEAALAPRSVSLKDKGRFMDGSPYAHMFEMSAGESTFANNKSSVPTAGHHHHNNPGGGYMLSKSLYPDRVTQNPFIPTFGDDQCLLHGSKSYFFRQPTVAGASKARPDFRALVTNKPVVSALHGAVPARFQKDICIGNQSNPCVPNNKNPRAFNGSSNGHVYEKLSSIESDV
# Source text: (§1) To assess Mg^2+ permeability the external solution was altered such that Mg^2+ was the only current-carrying cation (Mg^2+ solution). […] The same result was apparent for GluN1–GluN2B^N615I (Fig. 4a; Table 1). […] To assess whether the channel mutants affected Ca^2+ permeation, we modified the external solution to make Ca^2+ the only current-carrying cation[24] (Ca^2+ solution). […] This implied a significant reduction in Ca^2+ permeation for GluN2B^N615I.
# (§2) Cells were voltage clamped at −60 mV.
# [2] = target: T2, GluN1–GluN2B^V618G (Homo sapiens, UniProt Q05586+Q13224, V618G); experiment: as above; type: cell-based; set-up: expressed in transfected cells; host or cells: HEK293; settings: −60 mV
# T2 sequence (Q13224 27-1484 V618G, other chains not shown): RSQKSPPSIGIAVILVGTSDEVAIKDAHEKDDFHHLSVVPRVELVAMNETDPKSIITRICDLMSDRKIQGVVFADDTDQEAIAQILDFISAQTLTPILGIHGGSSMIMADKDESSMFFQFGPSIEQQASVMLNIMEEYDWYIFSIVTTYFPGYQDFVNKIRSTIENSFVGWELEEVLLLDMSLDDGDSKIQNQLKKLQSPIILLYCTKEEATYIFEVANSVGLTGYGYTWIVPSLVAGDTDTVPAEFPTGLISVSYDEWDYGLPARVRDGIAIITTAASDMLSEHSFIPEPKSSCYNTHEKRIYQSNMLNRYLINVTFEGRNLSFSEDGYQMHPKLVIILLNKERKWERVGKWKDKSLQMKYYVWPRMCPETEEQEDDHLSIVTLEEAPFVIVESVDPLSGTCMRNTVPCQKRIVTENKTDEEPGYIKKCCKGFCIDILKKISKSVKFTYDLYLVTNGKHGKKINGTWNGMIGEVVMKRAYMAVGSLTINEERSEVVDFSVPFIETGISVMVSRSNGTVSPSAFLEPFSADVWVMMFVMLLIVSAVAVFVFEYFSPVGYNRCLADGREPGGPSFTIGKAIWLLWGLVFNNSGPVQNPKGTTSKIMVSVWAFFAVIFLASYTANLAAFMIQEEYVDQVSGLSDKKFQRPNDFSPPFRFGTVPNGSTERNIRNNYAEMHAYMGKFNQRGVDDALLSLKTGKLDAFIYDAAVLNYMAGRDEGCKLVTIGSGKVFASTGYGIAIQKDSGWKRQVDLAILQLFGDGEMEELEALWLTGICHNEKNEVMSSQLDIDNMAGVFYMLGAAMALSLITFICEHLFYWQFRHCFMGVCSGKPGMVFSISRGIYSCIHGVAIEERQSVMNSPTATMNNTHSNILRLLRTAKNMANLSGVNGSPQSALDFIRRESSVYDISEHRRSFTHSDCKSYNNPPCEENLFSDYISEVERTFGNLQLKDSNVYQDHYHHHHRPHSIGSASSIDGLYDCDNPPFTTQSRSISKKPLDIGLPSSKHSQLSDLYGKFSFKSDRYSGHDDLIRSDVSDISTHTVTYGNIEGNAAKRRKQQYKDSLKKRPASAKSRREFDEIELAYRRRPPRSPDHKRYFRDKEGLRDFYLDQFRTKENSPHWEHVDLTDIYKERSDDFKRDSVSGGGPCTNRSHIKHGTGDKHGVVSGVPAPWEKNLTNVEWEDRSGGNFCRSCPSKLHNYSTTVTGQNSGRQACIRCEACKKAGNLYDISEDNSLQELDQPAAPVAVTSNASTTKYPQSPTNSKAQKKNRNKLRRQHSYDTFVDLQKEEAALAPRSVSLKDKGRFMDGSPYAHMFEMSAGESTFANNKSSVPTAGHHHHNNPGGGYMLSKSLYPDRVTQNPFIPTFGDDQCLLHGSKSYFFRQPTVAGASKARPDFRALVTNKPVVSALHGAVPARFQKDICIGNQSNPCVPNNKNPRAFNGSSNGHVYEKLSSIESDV
# Source text: as §1, §2
# [3] = target: T3, GluN1–GluN2B^N615I (Homo sapiens, UniProt Q05586+Q13224, N615I); experiment: as above; type: cell-based; set-up: expressed in transfected cells; host or cells: HEK293; settings: −60 mV
# T3 sequence (Q13224 27-1484 N615I, other chains not shown): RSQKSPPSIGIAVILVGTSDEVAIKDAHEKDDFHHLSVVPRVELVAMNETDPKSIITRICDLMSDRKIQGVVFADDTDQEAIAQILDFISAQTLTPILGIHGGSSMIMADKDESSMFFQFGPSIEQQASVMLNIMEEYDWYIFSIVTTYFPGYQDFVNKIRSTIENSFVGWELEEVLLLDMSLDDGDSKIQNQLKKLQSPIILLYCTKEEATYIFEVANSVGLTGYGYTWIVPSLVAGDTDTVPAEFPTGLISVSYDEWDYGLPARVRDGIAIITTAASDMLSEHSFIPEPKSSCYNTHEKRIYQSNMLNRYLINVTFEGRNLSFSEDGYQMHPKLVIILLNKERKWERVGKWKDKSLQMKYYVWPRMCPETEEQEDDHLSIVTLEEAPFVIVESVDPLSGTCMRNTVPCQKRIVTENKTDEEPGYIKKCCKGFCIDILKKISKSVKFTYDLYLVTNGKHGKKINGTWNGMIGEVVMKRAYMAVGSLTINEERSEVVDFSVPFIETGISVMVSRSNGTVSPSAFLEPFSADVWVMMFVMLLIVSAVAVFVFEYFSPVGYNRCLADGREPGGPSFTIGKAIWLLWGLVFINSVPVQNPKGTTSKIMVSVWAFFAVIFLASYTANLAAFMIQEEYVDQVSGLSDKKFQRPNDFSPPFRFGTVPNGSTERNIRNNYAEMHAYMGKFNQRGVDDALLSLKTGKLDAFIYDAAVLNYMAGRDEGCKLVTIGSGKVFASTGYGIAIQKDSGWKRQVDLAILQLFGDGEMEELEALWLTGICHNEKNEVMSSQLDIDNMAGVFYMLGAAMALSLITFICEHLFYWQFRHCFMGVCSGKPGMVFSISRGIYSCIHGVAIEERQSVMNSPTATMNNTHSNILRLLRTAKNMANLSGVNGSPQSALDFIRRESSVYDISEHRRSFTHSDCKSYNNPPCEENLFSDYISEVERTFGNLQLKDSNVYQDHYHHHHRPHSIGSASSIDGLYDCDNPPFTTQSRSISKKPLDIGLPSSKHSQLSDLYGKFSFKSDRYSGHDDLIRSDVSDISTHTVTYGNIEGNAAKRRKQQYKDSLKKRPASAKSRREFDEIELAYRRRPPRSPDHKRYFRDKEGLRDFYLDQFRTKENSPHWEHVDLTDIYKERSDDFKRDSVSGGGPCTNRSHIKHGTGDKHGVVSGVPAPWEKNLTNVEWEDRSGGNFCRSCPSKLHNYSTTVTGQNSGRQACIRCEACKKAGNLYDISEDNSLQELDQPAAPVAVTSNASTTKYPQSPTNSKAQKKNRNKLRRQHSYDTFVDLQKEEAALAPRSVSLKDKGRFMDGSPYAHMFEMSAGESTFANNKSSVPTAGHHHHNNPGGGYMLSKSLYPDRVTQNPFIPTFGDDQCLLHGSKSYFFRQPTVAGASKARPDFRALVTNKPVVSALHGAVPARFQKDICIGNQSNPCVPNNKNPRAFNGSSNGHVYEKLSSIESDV
# Source text: as §1, §2
# [4] = target: T2, GluN1–GluN2B^V618G; experiment: Mg2+ block of glutamate currents in HEK293 cells (concentration–inhibition, I–V, permeation model); type: cell-based; set-up: expressed in transfected cells; host or cells: HEK293; settings: −60 mV; for Effect of external Mg^2+ on glutamate current (Mg2+ block): 1 μM–10 mM Mg^2+
# [5] = target: T1, GluN1–GluN2B^WT; experiment: Mg2+ block of glutamate currents in HEK293 cells (concentration–inhibition, I–V, trapping model); type: cell-based; set-up: expressed in transfected cells; host or cells: HEK293
# [6] = target: T3, GluN1–GluN2B^N615I; experiment: Mg2+ block of glutamate currents in HEK293 cells (concentration–inhibition, I–V, permeation model); type: cell-based; set-up: expressed in transfected cells; host or cells: HEK293; settings: 1 μM–10 mM Mg^2+, −60 mV
# [7] = system: NMDAR-mediated EPSCs, hippocampal neurons; experiment: NMDAR-mediated EPSCs in cultured hippocampal neurons, pharmacological characterisation; type: cell-based, rat; settings: 3 μM ifenprodil, 13–15 DIV untransfected neurons
# Protocol: The impact of the GluN2B mutations was assessed on neuronal NMDARs by evoking network-driven NMDAR-mediated EPSCs in hippocampal neurons transfected with either wild-type or mutant GluN2B constructs. Hippocampal cultures were superfused with Krebs containing 10 μM CNQX and 20 μM bicuculline to block non-NMDA receptor and GABAA receptor-mediated currents, respectively. […] To obtain phase-locked EPSCs, a loose cell-attached patch electrode was used to serially stimulate presynaptic neurons yielding evoked EPSCs in postsynaptic neurons.
# The relative contributions of GluN2A and GluN2B subunits to NMDAR-mediated currents (at 13–15 DIV) was assessed using the selective antagonists, TCN213 (30 μM, for GluN2A) and ifenprodil (3 μM, for GluN2B).
# (§3) Dissected hippocampi were dissociated from E18 Sprague Dawley rat embryos using procedures and protocols that have been approved by the UK Home Office. They were dissociated into single cells using 0.1% w/v trypsin and serially triturated with flame-polished Pasteur pipettes. […] Neurons were transfected after 10 days in vitro (DIV) with either cDNAs for the GluN2B WT or mutants together with DsRed using Effectene (Qiagen) and recorded at 13–15 DIV.
# as §2
# (§4) NMDAR-mediated EPSCs were evoked by direct stimulation of single neighbouring neurons using a loose cell-attached patch electrode filled with Krebs and containing a bipolar stimulating electrode. […] For the pharmacological characterisation of NMDAR-mediated EPSCs, the selective antagonists ifenprodil (+)-hemitartrate (Santacruz biotechnology) and TCN213 (Tocris) were used.
# (§5) EPSCs were analysed offline using WinWCP (Strathclyde Electrophysiology Software, UK). Peak EPSC amplitude, the area of the EPSC (charge transfer) and EPSC decays were measured. The decay time constants (τ) were determined by fitting the EPSC decays with a double exponential function. The weighted time constant (τw) was calculated using the following equation, where A indicates the relative area of each time constant.3 τw=((A1.τ1)+(A2.τ2))∕A1+A2.
# [8] = system: hippocampal neurons expressing GluN2B^WT; experiment: Evoked NMDAR-mediated EPSCs in transfected hippocampal neurons; type: cell-based, rat; settings: 30 μM memantine, 0 Mg^2+
# Source text: as §3, §2, §4, §5
# [9] = system: hippocampal neurons expressing GluN2B^V618G; experiment: as above; type: cell-based, rat; settings: 300 μM memantine, 0 Mg^2+
# Source text: as §3, §2, §4, §5
# [10] = system: hippocampal neurons expressing GluN2B^N615I; experiment: as above; type: cell-based, rat; settings: 30 μM memantine, 0 Mg^2+
# Source text: as §3, §2, §4, §5
# [11] = target: T1, GluN1–GluN2B^WT; experiment: Memantine block of glutamate currents in HEK293 cells (concentration–inhibition, I–V, trapping model); type: cell-based; set-up: expressed in transfected cells; host or cells: HEK293; settings: for δMem, fraction of membrane potential sensed by memantine: trapping block model fit
# Protocol: (§6) To examine voltage-dependent block of NMDARs, HEK293 cells were voltage clamped at −30 mV, and currents recorded following a voltage (10 mV) step protocol from −90 to +90 mV. […] The current induced by the agonists was determined by subtracting the leak current before plotting the I–V relationship.
# (§7) To explain the block of the NMDAR we adopted a trapping based model (Table 2) whereby the antagonist can remain bound to its site (e.g. in the channel) after agonist dissociation.
# (§8) The values of k+bo(0 mV) and k+bi(0 mV) were fixed at 5 × 10^7 M^-1 s^-1. […] This allowed k−bo and δMg to be estimated independently. For the permeation model (see below), the same principle was used to define the ion binding rate (k+bi) from the inside of the channel.
# [12] = target: T2, GluN1–GluN2B^V618G; experiment: as above; type: cell-based; set-up: expressed in transfected cells; host or cells: HEK293
# Protocol: as §6, §7, §8
# [13] = target: T3, GluN1–GluN2B^N615I; experiment: as above; type: cell-based; set-up: expressed in transfected cells; host or cells: HEK293
# Protocol: as §6, §7, §8
# [14] = Memantine pKa and ionisation; type: physicochemical
# [15] = Ca^2+ solution (100 mM), 10 μM glutamate and 10 μM glycine
# [16] = current in Ca^2+ solution as % of current in Krebs
# [17] = Mg^2+ solution (100 mM), 10 μM glutamate and 10 μM glycine
# [18] = current in Mg^2+ solution as % of current in Krebs
# [19] = after removal of 10 μM glutamate + 10 μM glycine, range of memantine concentrations
smiles,measurement,setting,value
[Ca+2] [Ca^2+],ICa current density,[1]; [15],−7.08 ± 2.12 pA/pF
same,ICa/IKrebs,[1]; [16],52.83 ± 1.07%
same,ICa current density,[2]; [15],−5.00 ± 0.64 pA/pF
same,ICa/IKrebs,[2]; [16],46.28 ± 3.18%
same,ICa current density,[3]; [15],−0.47 ± 0.10 pA/pF
same,ICa/IKrebs,[3]; [16],11.07 ± 1.04%
[Mg+2] [Mg^2+],Effect of external Mg^2+ on glutamate current (Mg2+ block),[4],unaffected by external Mg^2+
same,Effect of external Mg^2+ on glutamate current (Mg2+ block),[4]; listed as Mg2+,insensitive to Mg2+
same,Change in current at high Mg^2+ concentrations,[4]; 3–10 mM Mg^2+,small increase in current
same,IMg current density,[1]; [17],−0.07 ± 0.03 pA/pF
same,IMg/IKrebs,[1]; [18],0.91 ± 0.37%
same,IMg current density,[2]; [17],−10.28 ± 2.53 pA/pF
same,IMg/IKrebs,[2]; [18],58.4 ± 9.8% and 58.46 ± 9.8 %
same,IMg current density,[3]; [17],−0.09 ± 0.03 pA/pF
same,IMg/IKrebs,[3]; [18],1.63 ± 0.64%
same,"k-bi (0mV), Mg2+ unbinding rate constant to inside","[5]; predicted rate constant, 0 mV",25124 s⁻¹
same,"k-bo (0mV), Mg2+ unbinding rate constant to outside","[5]; predicted rate constant, 0 mV",24686 s⁻¹
same,Kd,"[5]; read-out: Dissociation constant for Mg^2+ binding at −60 mV, trapping block model, −60 mV",123 µM
same,IC50,"[5]; read-out: Mg^2+ IC50 (−60 mV), 10 μM glutamate and 10 μM glycine, −60 mV",142 µM
same,"δMg, fraction of membrane potential sensed by Mg^2+",[5]; trapping block model fit,0.88 ± 0.04
same,Effect of external Mg^2+ on glutamate current (Mg2+ block),[6],unaffected by external Mg^2+
same,Effect of external Mg^2+ on glutamate current (Mg2+ block),[6]; listed as Mg2+,insensitive to Mg2+
"CC(C(O)c1ccc(O)cc1)N1CCC(Cc2ccccc2)CC1 (stereo not drawn) [Ifenprodil, ifenprodil (+)-hemitartrate]",Decrease of EPSC decay time,[7],30%
same,Effect on peak EPSC amplitude,[7],reduced the peak EPSC amplitude
"CC12CC3CC(C)(C1)CC(N)(C3)C2 [Memantine, memantine]",Inhibition of peak EPSC amplitude and charge transfer by memantine,[8],inhibited to a comparable extent
same,Inhibition of peak EPSC amplitude and charge transfer by memantine,[9],inhibited to a comparable extent
same,Inhibition of peak EPSC amplitude and charge transfer by memantine,[10],inhibited to a comparable extent
same,Effect of memantine on deactivation time constant (τ),[11]; [19],did not affect
same,"δMem, fraction of membrane potential sensed by memantine",[11],0.65 ± 0.026
same,"δMem, fraction of membrane potential sensed by memantine",[11]; listed as memantine,0.65 ± 0.03
same,Effect of memantine on deactivation time constant (τ),[12]; [19],did not affect
same,"δMem, fraction of membrane potential sensed by memantine",[12]; trapping block model fit,0.42 ± 0.03
same,Effect of memantine on deactivation time constant (τ),[13]; [19],did not affect
same,"δMem, fraction of membrane potential sensed by memantine",[13]; trapping block model fit,0.42 ± 0.11
same,Fraction charged at physiological pH,[14],99.95%
